Measurements as given in patent EP2088143A1, “Novel inhibitors of mycobacterium tuberculosis complex cytochrome P450 CYP121” (priority 2008, dated 2009).

Assays:
[1] = molecular target: T1, CYP121 (Mycobacterium tuberculosis, UniProt P9WPP7); test: Inhibition of CYP121 activity: cyclo(L-Tyr-L-Tyr) transformation in the presence of added compound, RP-HPLC analysis; type: biochemical
Target sequence in this assay (P9WPP7 2-396 limits assumed): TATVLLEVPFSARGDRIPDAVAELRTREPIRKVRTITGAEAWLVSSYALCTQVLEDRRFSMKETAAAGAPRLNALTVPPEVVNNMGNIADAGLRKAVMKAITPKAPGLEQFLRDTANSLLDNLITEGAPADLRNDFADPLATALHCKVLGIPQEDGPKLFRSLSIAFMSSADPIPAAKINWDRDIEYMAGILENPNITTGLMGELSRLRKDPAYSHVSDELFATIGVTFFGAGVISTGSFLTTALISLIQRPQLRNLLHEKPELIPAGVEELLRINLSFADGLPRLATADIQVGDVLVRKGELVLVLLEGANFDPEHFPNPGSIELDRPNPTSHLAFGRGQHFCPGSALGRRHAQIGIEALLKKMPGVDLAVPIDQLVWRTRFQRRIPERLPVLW

[2] = molecular target: T1, CYP121; test: CYP121 enzyme assay: transformation of cyclodipeptide with electron transport chain and NADPH, RP-HPLC analysis; type: biochemical; conditions: 30°C; for transformation of cyclodipeptide by CYP121: ~0.1 mM cyclodipeptide, 5 µM CYP121, electron transport chain, 0-60 min
Target sequence in this assay (P9WPP7 2-396 limits assumed): as above

[3] = molecular target: T1, CYP121; test: Spectral binding titration of CYP121 by cyclodipeptide (UV/Vis absorbance spectroscopy, type I binding); conditions: 2 µM CYP121, Tris-HCl 50 mM pH 7.6 10% glycerol; ΔA388-ΔA416 versus cyclodipeptide concentration; mean of four experiments; read-out: binding constant (Ks)
[4] = molecular target: T1, CYP121; test: Co-crystallisation with CYP121 and X-ray structure of the complex; type: binding; conditions: co-crystals; 0.2 mM cyclo(L-Tyr-L-Phe), 0.8 mM cyclo(L-Tyr-L-Ala)
Target sequence in this assay (P9WPP7 2-396 limits assumed): as above

[5] = molecular target: Mycobacterium tuberculosis cytochrome P450 CYP121 (Mycobacterium bovis BCG Pasteur (100% identical to Mycobacterium tuberculosis H37Rv)) (UniProt P9WPP7); test: cell-based or functional assay
[6] = molecular target: Mycobacterium tuberculosis cytochrome P450 CYP121 (Mycobacterium bovis BCG Pasteur (100% identical to Mycobacterium tuberculosis H37Rv)) (UniProt P9WPP7); test: spectrally estimated dissociation constant (Ks); UV/Vis titration of 2 µM CYP121, ΔA388-ΔA416 fitted to a hyperbola

Chain of Mycobacterium tuberculosis cytochrome P450 CYP121 (Mycobacterium bovis BCG Pasteur (100% identical to Mycobacterium tuberculosis H37Rv)) (P9WPP7 whole entry): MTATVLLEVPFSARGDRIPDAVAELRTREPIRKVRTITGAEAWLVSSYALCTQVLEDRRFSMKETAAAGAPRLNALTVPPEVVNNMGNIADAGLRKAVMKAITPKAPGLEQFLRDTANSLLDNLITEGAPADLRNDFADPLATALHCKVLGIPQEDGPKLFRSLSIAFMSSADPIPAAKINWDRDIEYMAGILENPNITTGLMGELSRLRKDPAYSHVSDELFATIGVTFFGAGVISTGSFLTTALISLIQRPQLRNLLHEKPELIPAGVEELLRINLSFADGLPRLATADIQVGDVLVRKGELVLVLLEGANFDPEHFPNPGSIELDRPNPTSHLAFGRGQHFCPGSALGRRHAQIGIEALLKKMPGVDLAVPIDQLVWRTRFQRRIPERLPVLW

## O=C1N[C@@H](Cc2ccc(O)c(O)c2)C(=O)N[C@H]1Cc1ccc(O)cc1 [cyclo(L-DOPA-L-Tyr), cyclo(L-3 or 5,4-dihydroxyphenylalanine-L-Tyr)]
[1]; 1.2 mM added cyclodipeptide, 60 min incubation at 30°C
  inhibition of cyclo(L-Tyr-L-Tyr) transformation: completely inhibits
[2]; NADPH
  transformation of cyclodipeptide by CYP121: no transformation was detected
[3]
  Kd: 14.7 ± 1.5 µM

## C[C@@H]1NC(=O)[C@H](Cc2ccc(O)cc2)NC1=O [cyclo(L-Tyr-L-Ala)]
[4]
  binding to CYP121 (crystal structure of the complex): bind to CYP121

## O=C1N[C@@H](Cc2ccc(O)cc2)C(=O)N[C@H]1Cc1ccccc1 [cyclo(L-Tyr-L-Phe)]
[4]
  binding to CYP121 (crystal structure of the complex): bind to CYP121

## O=C1N[C@@H](Cc2c[nH]c3ccccc23)C(=O)N[C@H]1Cc1ccc(O)cc1 [cyclo(L-Tyr-L-Trp)]
[1]; 0.11 mM cyclo(L-Tyr-L-Tyr), 1.2 mM cyclo(L-Tyr-L-Trp), 60 min, 30°C, completely absent after 30 min without inhibitor
  initial cyclo(L-Tyr-L-Tyr) detected after 60 min incubation: ~30%
[2]; NADPH
  transformation of cyclodipeptide by CYP121: can be transformed by CYP121, albeit less efficiently than cyclo(L-Tyr-L-Tyr)
[3]
  Kd: 63.4 ± 8.8 µM

## O=C1N[C@@H](Cc2ccc(O)cc2)C(=O)N[C@H]1Cc1ccc(O)cc1 [cyclo(L-Tyr-L-Tyr)]
[2]; no inhibitor added
  time to complete conversion of cyclo(L-Tyr-L-Tyr) by CYP121: less than 30 min
[2]; in vitro conditions, exogenous electron transport chain, NADPH
  rate of cyclo(L-Tyr-L-Tyr) transformation: 3.8 nmoles/min/nmole of CYP121
[2]; NADPH
  transformation of cyclodipeptide by CYP121: complete consumption

## cyclo(L-Tyr-L-Trp) (peptide)
[5]
  inhibition of cyclo(L-Tyr-L-Tyr) transformation by CYP121 with 1.2 mM cyclo(L-Tyr-L-Trp) (RP-HPLC): 30

## cyclo(L-Tyr-L-Tyr) (peptide)
[5]
  rate of cyclo(L-Tyr-L-Tyr) transformation (nmoles/min/nmole of CYP121): 3.8
[6]
  Kd: 27.6 µM
